Test results taken from PMC7423246, “A Peptide–Lectin Fusion Strategy for Developing a Glycan Probe for Use in Various Assay Formats” (Chemosensors (Basel, Switzerland), 2019).

Target: T1, Pseudomonas fluorescens agglutinin (PFA) (Pseudomonas fluorescens, UniProt Q3KJ04)
T1 construct: gene Pfl01_0508; 14 kDa
T1 sequence (Q3KJ04 1-133): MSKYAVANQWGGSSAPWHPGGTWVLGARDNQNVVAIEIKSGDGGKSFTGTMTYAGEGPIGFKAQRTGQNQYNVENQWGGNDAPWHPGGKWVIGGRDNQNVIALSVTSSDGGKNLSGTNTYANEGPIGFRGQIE
Assay: competitive ELISA on immobilized gp120
Details: inhibition of PFA binding to immobilized gp120, 400 nM PFA, 0-2000 mM mannose, room temperature not stated for this step

OC[C@H]1OC(O)[C@@H](O)[C@@H](O)[C@@H]1O (stereo partly shown) [mannose]
onset of inhibition: ~ 200 mM
